Test results as given in US11484591B2, “Chemoprevention using controlled-release formulations of anti-interleukin 6 agents, synthetic vitamin A analogues or metabolites, and estradiol metabolites” (OHIO STATE INNOVATION FOUNDATION, priority 2016, dated 2022).
Entries after “also recorded” stand apart in the source; their conditions may differ.

Assays:
[1] = cited from earlier work
STAT3 = STAT3 cytosolic phosphorylation and nuclear translocation, immunoblots of OSCC cell lines; type: cell-based, human
Description: FIGS. 2A, 2B, and 2C show the treatment effects of fenretinide (4-HPR, 5 μM), 2-methoxyestradiol (2-ME, 2.5 μM) and the STAT3 inhibitor LY5 (0.5 μM) on STAT3 phosphorylation and nuclear translocation. (A) (JSCC1 cells) (B) (JSCC2 cells) and (C) (JSCC3 cells) were evaluated. Cytosolic and nuclear proteins were harvested from sera deprived JSCC1 and JSCC2 cell lines following 24 h of treatment (5 μM 4-HPR, 2.5 μM 2-ME, or 0.5 μM LY5) or vehicle (0.1% DMSO) control. […] As the JSCC3 cells don't constitutively express pSTAT3, these cells underwent 24 h stimulation in base medium supplemented with 10 ng/mL of IL-6 or 5 ng/mL of TGF-α, with or without 4-HPE, 2-ME or LY5 treatment, followed by harvest. […] (n=3, p<0.05, Wilcoxon matched pairs signed rank test).
Dosing levels were determined by concurrent proliferation and viability studies in conjunction with literature values. The cells in every treatment group were then stimulated for 20 minutes with: vehicle (1 μl ddH2O), 50 ng/ml EGF, 50 ng/ml VEGF, or 50 ng/ml EGF+50 ng/ml VEGF, followed by standard immunoblotting and data normalization relative to GAPDH. […] Immunoblot images were captured (Li-Cor Odyssey imager) and analyzed (Li-Cor Image Studio, Version 4.0) to depict effects on treatment on phosphorylation relative to respective levels of GAPDH. […]

[2] = 4-HPR release from PLGA implants, tumor and sera levels (UPLC/UV); type: in vivo, nude mice
From the text: Determination of 4-HPR tumor levels entailed recording tumor wet mass, addition of internal standard (acitretin) and RIPA lysis buffer, followed by homogenization, addition of acetonitrile and centrifugation. Acetretin percent recovery was compared to a RIPA buffer/acetonitrile extraction control solution spiked with equivalent amount of acetretin and 4-HPR. Sera preparation entailed addition of acetretin and acetonitrile, sonication, followed by centrifugation.
SCC2095sc cells [10^6 cells suspended in 100 μl Matrigel (Corning Life Sciences, Corning, N.Y.)] were subcutaneously injected in the flanks of 6 week old male nude mice (n=6 per treatment group). Tumor measurements were recorded daily with calipers (greatest length and greatest width) and final tumor volumes calculated via tumor volume V=(length×width)×½. Treatment groups consisted of: 1) control (PBS injections)+blank (no drug) PLGA implants, 2) 2-ME (1 μg/100 μl PBS, b.i.d.)+blank PLGA implant, 3) 4-HPR releasing PLGA implant+PBS injections, 4) TOC q.d. (0.3 μg/100 μl PBS)+PLGA blank implant, 5) 2-ME (1 μg/100 μl PBS, b.i.d.)+4-HPR releasing PLGA implant, 6) 2-ME (1 μg/100 μl PBS, b.i.d.)+TOC q.d. (0.3 μg/100 μl PBS)+blank PLGA implant, 7) TOC q.d. (0.3 μg/100 μl PBS)+4-HPR releasing PLGA implant, 8) 2-ME (1 μg/100 μl PBS, b.i.d.)+TOC q.d. (0.3 μg/100 μl PBS)+4-HPR releasing PLGA implant. By day 14 post injection, all mice had measurable tumors and treatment began on day 15. […] Pretreatment mean tumor volumes therefore varied among treatment groups. PLGA implants (via trocar) and injections were placed in the center of the tumor. At day 28 post OSCC xenograft placement final tumor measurements were obtained, the mice were euthanized and OSCC tumors along with lung, liver and sera were harvested for pharmacokinetic, histologic and IHC analyses (Ki-67, cleaved caspase-3 and involucrin). Image analyses of the nuclear stains (Ki-67 and cleaved caspase 3) were conducted using Image-Pro Plus 6.2 software (Media Cybernetics, Rockville, Md.).

- detectable levels in the sera ([2]; 4-HPR or its metabolites, any animals): absence of any detectable levels
- concentration at 28 days post xenograft placement (treatment began on day 15) ([2]; male, nude, mouse, serum, all mice that received PLGA implants, below LLOQ): < 50 ng/mL
Structure (SMILES): CC1=C(/C=C/C(C)=C/C=C/C(C)=C/C(=O)Nc2ccc(O)cc2)C(C)(C)CCC1 [4-HPR, 4-hydroxy(phenyl)retinamide]
- log P [1]: 8.03
- constitutive STAT3 phosphorylation and pSTAT3 nuclear translocation (STAT3; JSCC1 and JSCC2 cells, 5 μM, 24 h): suppressed; also recorded: significantly reduced
- suppression of STAT3 activation and nuclear translocation relative to STAT3 inhibitor LY5 (STAT3; JSCC1 cells, 5 μM 4-HPR vs 0.5 μM LY5): appreciably more effectively
